Assay results reported in ChEMBL document CHEMBL3124744, “4-Functionalized 1,3-diarylpyrazoles bearing benzenesulfonamide moiety as selective potent inhibitors of the tumor associated carbonic anhydrase isoforms IX and XII” (Eur J Med Chem, 2014).

Legend:
Carbonic anhydrase 9 = Carbonic anhydrase 9 (Homo sapiens, UniProt Q16790)
Description: Inhibition of human carbonic anhydrase 9-mediated CO2 hydration preincubated for 10 mins by stopped-flow assay

Carbonic anhydrase 12 = Carbonic anhydrase 12 (Homo sapiens, UniProt O43570)
Carbonic anhydrase 12, sequence (O43570 whole entry): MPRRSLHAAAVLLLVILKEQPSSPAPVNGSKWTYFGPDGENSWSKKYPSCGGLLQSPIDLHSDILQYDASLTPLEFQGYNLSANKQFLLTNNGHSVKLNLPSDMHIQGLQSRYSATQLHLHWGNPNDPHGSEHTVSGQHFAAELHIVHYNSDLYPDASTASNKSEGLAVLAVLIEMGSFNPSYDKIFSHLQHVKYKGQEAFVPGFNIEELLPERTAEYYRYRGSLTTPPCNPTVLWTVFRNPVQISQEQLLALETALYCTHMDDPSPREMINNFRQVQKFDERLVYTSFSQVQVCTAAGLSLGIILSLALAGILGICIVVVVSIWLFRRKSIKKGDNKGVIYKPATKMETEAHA
Description: Inhibition of human carbonic anhydrase 12-mediated CO2 hydration preincubated for 10 mins by stopped-flow assay

Structure (SMILES)	Ki (Carbonic anhydrase 9) [nM]	Ki (Carbonic anhydrase 12) [nM]
NC(=O)c1cn(-c2ccc(S(N)(=O)=O)cc2)nc1-c1ccc(Cl)cc1	5.2	
NC(=O)c1cn(-c2ccc(S(N)(=O)=O)cc2)nc1-c1ccc([N+](=O)[O-])cc1	49	
COC(=O)c1cn(-c2ccc(S(N)(=O)=O)cc2)nc1-c1ccc(Br)cc1		43.7

Continued by falling Ki (Carbonic anhydrase 9), values first:

Ki (Carbonic anhydrase 9) [nM]	Ki (Carbonic anhydrase 12) [nM]	Structure (SMILES)
17.1		COC(=O)c1cn(-c2ccc(S(N)(=O)=O)cc2)nc1-c1ccc(Cl)cc1
5.2		COC(=O)c1cn(-c2ccc(S(N)(=O)=O)cc2)nc1-c1ccc([N+](=O)[O-])cc1
2.3		NC(=O)c1cn(-c2ccc(S(N)(=O)=O)cc2)nc1-c1ccc(F)cc1
2.1		NC(=O)c1cn(-c2ccc(S(N)(=O)=O)cc2)nc1-c1cccs1
